According to patent US12251370B2, “Small molecule inhibitors of the BfrB:Bfd interaction” (BOARD OF SUPERVISORS OF LOUISIANA STATE UNIVERSITY AND …, priority 2018, dated 2025):
Entries after “also recorded” stand apart in the source; their conditions may differ.

How the values were obtained:
Assay type in all cases: cell-based, Pseudomonas aeruginosa
[1] = system: iron mobilization from BfrB in P. aeruginosa; experiment: Imaging of iron stored in BfrB and analysis of total iron levels; settings: analog 125 μM, M63 + 4 μM Fe
Procedure: The resultant cell suspensions (5 mL) were mixed with a small volume of a 10 mM working solution of analog 16 in DMSO to give a 125 μM solution and 2% DMSO, or simply 2% DMSO (control). The conical tubes were covered with a sterile air permeable membrane and the cultures incubated at 35° C. and 120 rpm for 6, 9, 12, 15, 18, 21 and 24 h. Prior to separating the cells by centrifugation (4,000 rpm, 15 min), a 100 μL aliquot was withdrawn from each conical tube and serially diluted for plating and enumerating viable cells. The separated pellet was washed with 5 mL of PBS and frozen at −20° C. for subsequent analysis. The corresponding cell free supernatants were used for iron analysis in the spent media, as described below. […]
To determine the total iron levels of cells treated with analog 16 or DMSO only (control), 5 mL cultures were grown in M63 media supplemented with 4 μM iron, as described above, and analyzed at 12, 15, 21, 24, and 28 h. […] Cell pellets were washed twice with 10 mL of PBS and the total levels of cellular iron were measured using a published protocol.^18, 48 In brief, cell pellets were mixed with 500 μL of freshly prepared digestion reagent (1:1 v/v 1.2 N HCl and 4.5% w/v KMnO4 in water), thoroughly mixed by vortexing, and incubated at 65° C. for 4 h. […]

[2] = system: P. aeruginosa PAO1; experiment: Effect of analogs on the potency of fluoroquinolone antibiotics, strain PAO1; settings: PAO1
Procedure: (§1) The combined treatment was carried out similarly, ensuring that the final concentration of DMSO was 2%.

[3] = system: P. aeruginosa clinical isolate MR3B; experiment: Effect of analog on ciprofloxacin potency, clinical isolate MR3B
Procedure: as §1

[4] = system: P. aeruginosa clinical isolate MR60; experiment: Effect of analog on ciprofloxacin potency, clinical isolate MR60
Procedure: as §1

[5] = system: wild type P. aeruginosa cells; experiment: Growth response of wild type cells to analog (viable cell count); settings: M63 + 4 μM Fe; 15 h post-inoculation; viable cells vs untreated control
Procedure: To this end, wild type and ΔbfrB cells were cultured in M63 media supplemented with 4 μM Fe, in the presence of different concentrations of analog. […] Since BfrB is not essential, it is likely that the cell can compensate for the absence of the iron storage protein. […] The sudden onset of toxicity observed in the second phase, which is not observed with the wild type cells, is probably related to off-target effects that expose a fitness vulnerability caused by the absence of BfrB. Consequently, it is possible to conclude that the dose-dependent growth defect elicited by 11 or 16 on wild type P. aeruginosa cells is largely a consequence of the interaction between the small molecule inhibitors and BfrB in the bacterial cell. This issue was investigated in additional detail (see below) by probing the phenotypic and biochemical response of wild type cells treated with the small molecule inhibitors.

O=C1NC(=O)c2c(NCCCc3cccc(O)c3)cccc21 [Analog 16, 4-((3-(3-Hydroxyphenyl)propyl)amino)isoindoline-1,3-dione]
iron mobilization from BfrB (native PAGE stained with Ferene S) [1]: significant inhibition of iron mobilization from BfrB; also recorded: much slower (inhibited) mobilization of iron from BfrB
viable cells, fold fewer than untreated control ([1]; all time points): approximately 2.5 fold
% survival, fold lower relative to ciprofloxacin alone ([2]; analog 16 125 μM + ciprofloxacin 0.25 μg/mL): approximately 50 fold
cell survival, fold lower relative to fluoroquinolone alone ([2]; analog 16 125 μM + levofloxacin 0.5 μg/mL): approximately 50 fold
cell survival, fold lower relative to fluoroquinolone alone ([2]; analog 16 125 μM + norfloxacin 0.9 μg/mL): approximately 50 fold
survival relative to untreated control ([2]; analog 16 only, 125 μM, 18 h): ~30%
survival, fold lower relative to ciprofloxacin alone ([3]; analog 16 + ciprofloxacin): approximately 20 fold
survival ([3]; analog 16 + ciprofloxacin 0.2 μg/mL): 0.5%
survival ([3]; analog 16 only, 125 μM): ca. 50%
survival, fold lower relative to ciprofloxacin alone ([4]; analog 16 + ciprofloxacin): approximately 4 fold
survival ([4]; analog 16 + ciprofloxacin 1 μg/mL): ca. 10%
survival ([4]; analog 16 only, 125 μM): ca. 40%
growth response of wild type cells [5]: monophasic dose-dependent growth defect
